Marks after values point to notes of the source that are not given here.
Experiments:
Type in all cases: in vivo
[1] = system: Phakopsora pachyrhizi (the causal agent of Asian soybean rust); test: Test A: preventive spray on soybean seedlings, Asian soybean rust, visual disease rating; details: soybean seedlings
How it was run: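 Preventive test: soybean seedlings received a run-off spray of compound suspended at the set ppm in 50/50 acetone/water plus 250 ppm PEG400, and one day later a P. pachyrhizi spore inoculum. Visual scoring (0 none to 100 full disease control) followed 24 h saturated incubation and 8 days' growth chamber, both at 22° C.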

[2] = system: Zymoseptoria tritici (the causal agent of wheat leaf blotch); test: Test B: preventive spray on wheat seedlings, wheat leaf blotch, visual disease rating; details: wheat seedlings
From the text: General protocol for preparing test suspensions for Tests A-D: the test compounds were first dissolved in acetone in an amount equal to 3% of the final volume and then suspended at the desired concentration (in ppm) in acetone and purified water (50/50 mix by volume) containing 250 ppm of the surfactant PEG400 (polyhydric alcohol esters). The resulting test suspensions were then used in Tests A-D.
The test suspension was sprayed to the point of run-off on wheat seedlings. The following day the seedlings were inoculated with a spore suspension of Zymoseptoria tritici (the causal agent of wheat leaf blotch) and incubated in a saturated atmosphere at 24° C. for 48 h, and then moved to a growth chamber at 20° C. for 17 days, after which time visual disease ratings were made.
The test results for Tests A-C presented in Table A below for compounds of Formula 1 illustrate the fungicidal activity of component (a) contributing to the plant disease control utility of compositions comprising component (a) in combination with component (b) according to the present invention. In the Table, a rating of 100 indicates 100% disease control and a rating of 0 indicates no disease control (relative to the controls). A dash (-) indicates the compound was not tested. The test suspensions were sprayed at the concentration listed in the column “Rate in ppm”, unless otherwise indicated. An asterisk “*” next to the rating indicates a 250 ppm test suspension was used, a double asterisk “**” next to the rating indicates a 100 ppm test suspension was used, and a triple asterisk “***” next to the rating indicates a 50 ppm test suspension was used.

[3] = system: Puccinia recondita f. sp. tritici (the causal agent of wheat leaf rust); test: Test C: preventive spray on wheat seedlings, wheat leaf rust, visual disease rating; details: wheat seedlings
How it was run: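 Wheat seedlings sprayed to run-off with compound in acetone/water (50/50) with 250 ppm PEG400, then inoculated with spores the following day. After 24 h saturated humidity at 20° C. and 6 days in growth chamber at 20° C., disease rated visually as % control relative to untreated controls.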

[4] = test suspension 10 ppm, 100 = 100% disease control, 0 = no control
[5] = test suspension 100 ppm (** next to rating)

FC(F)(F)c1nc(-c2ccc(Cn3ncc4cc(Br)ccc43)cc2)no1 [compound 128]
Test A disease control rating ([1]; test suspension 255 ppm): 100%
Test B disease control rating ([2]; test suspension 255 ppm): 19%
Test C disease control rating ([3]; test suspension 255 ppm): 100%

N#Cc1cn(Cc2ccc(-c3noc(C(F)(F)F)n3)cc2)c2ccccc12 [compound 129]
Test A disease control rating ([1]; test suspension 260 ppm): 100%
Test B disease control rating ([2]; test suspension 260 ppm): 0%
Test C disease control rating ([3]; test suspension 260 ppm): 89%

Fc1cccc2nn(Cc3ccc(-c4noc(C(F)(F)F)n4)cc3)cc12 [compound 130]
Test A disease control rating ([1]; test suspension 260 ppm): 100%
Test B disease control rating ([2]; test suspension 260 ppm): 89%
Test C disease control rating ([3]; test suspension 260 ppm): 100%

Cc1cc(C(F)(F)F)nn1Cc1ccc(-c2noc(C(F)(F)F)n2)cc1 [compound 132]
Test A disease control rating ([1]; test suspension 270 ppm): 100%
Test B disease control rating ([2]; test suspension 270 ppm): 0%
Test C disease control rating ([3]; test suspension 270 ppm): 95%

FC(F)(F)c1nc(-c2ccc(Cn3cc4cc(Br)ccc4n3)cc2)no1 [compound 133]
Test A disease control rating ([1]; test suspension 255 ppm): 100%
Test B disease control rating ([2]; test suspension 255 ppm): 59%
Test C disease control rating ([3]; test suspension 255 ppm): 100%

COC(=O)c1nn(Cc2ccc(-c3noc(C(F)(F)F)n3)cc2)c2ccccc12 [compound 134]
Test A disease control rating ([1]; test suspension 255 ppm): 100%
Test B disease control rating ([2]; test suspension 255 ppm): 0%
Test C disease control rating ([3]; test suspension 255 ppm): 80%

COC(=O)c1nncn1Cc1ccc(-c2noc(C(F)(F)F)n2)cc1 [compound 138]
Test A disease control rating ([1]; test suspension 260 ppm): 100%
Test B disease control rating ([2]; test suspension 260 ppm): 96%
Test C disease control rating ([3]; test suspension 260 ppm): 100%

COC(=O)c1ncn(Cc2ccc(-c3noc(C(F)(F)F)n3)cc2)n1 [compound 139]
Test A disease control rating ([1]; test suspension 255 ppm): 100%
Test B disease control rating ([2]; test suspension 255 ppm): 62%
Test C disease control rating ([3]; test suspension 255 ppm): 100%

FC(F)(F)c1nc(-c2ccc(Cn3ccc(-c4ccccc4Cl)n3)cc2)no1 [compound 142]
Test A disease control rating ([1]; test suspension 250 ppm): 100%
Test B disease control rating ([2]; test suspension 250 ppm): 57%
Test C disease control rating ([3]; test suspension 250 ppm): 100%

FC(F)(F)c1nc(-c2ccc(Cn3ncc4ccccc43)cc2)no1 [compound 143]
Test A disease control rating ([1]; test suspension 250 ppm): 100%
Test B disease control rating ([2]; test suspension 250 ppm): 71%
Test C disease control rating ([3]; test suspension 250 ppm): 100%

FC(F)(F)c1cc(C(F)(F)F)n(Cc2ccc(-c3noc(C(F)(F)F)n3)cc2)n1 [compound 144]
Test A disease control rating ([1]; test suspension 250 ppm): 36%
Test B disease control rating ([2]; test suspension 250 ppm): 0%
Test C disease control rating ([3]; test suspension 250 ppm): 0%

Cc1cc(C)n(Cc2ccc(-c3noc(C(F)(F)F)n3)cc2)n1 [compound 145]
Test A disease control rating ([1]; test suspension 250 ppm): 100%
Test B disease control rating ([2]; test suspension 250 ppm): 0%
Test C disease control rating ([3]; test suspension 250 ppm): 100%

FC(F)(F)c1nc(-c2ccc(Cn3cc(Br)c(-c4ccccc4Cl)n3)cc2)no1 [compound 146]
Test A disease control rating ([1]; test suspension 250 ppm): 100%
Test B disease control rating ([2]; test suspension 250 ppm): 0%
Test C disease control rating ([3]; test suspension 250 ppm): 0%

FC(F)(F)c1nc(-c2ccc(CN3CCC4(CC3)OCCO4)cc2)no1 [compound 149]
Test A disease control rating ([1]; test suspension 260 ppm): 100%
Test B disease control rating ([2]; test suspension 260 ppm): 72%
Test C disease control rating ([3]; test suspension 260 ppm): 100%

O=C1CCN(Cc2ccc(-c3noc(C(F)(F)F)n3)cc2)CC1 [compound 150]
Test A disease control rating ([1]; test suspension 255 ppm): 100%
Test B disease control rating ([2]; test suspension 255 ppm): 19%
Test C disease control rating ([3]; test suspension 255 ppm): 100%

FC(F)(F)c1ccn(Cc2ccc(-c3noc(C(F)(F)F)n3)cc2)n1 [compound 153]
Test A disease control rating ([1]; test suspension 250 ppm): 100%
Test B disease control rating ([2]; test suspension 250 ppm): 0%
Test C disease control rating ([3]; test suspension 250 ppm): 89%

O=c1sc2ccccc2n1Cc1ccc(-c2noc(C(F)(F)F)n2)cc1 [compound 156]
Test A disease control rating ([1]; test suspension 255 ppm): 100%
Test B disease control rating ([2]; test suspension 255 ppm): 86%
Test C disease control rating ([3]; test suspension 255 ppm): 100%

O=C1N(Cc2ccc(-c3noc(C(F)(F)F)n3)cc2)c2ccccc2C1(F)F [compound 161]
Test A disease control rating ([1]; test suspension 265 ppm): 100%
Test B disease control rating ([2]; test suspension 265 ppm): 33%
Test C disease control rating ([3]; test suspension 265 ppm): 99%

FC(F)(F)c1nc(-c2ccc(Cn3cccn3)cc2)no1 [compound 162]
Test A disease control rating ([1]; test suspension 250 ppm): 100%
Test B disease control rating ([2]; test suspension 250 ppm): 0%
Test C disease control rating ([3]; test suspension 250 ppm): 100%

FC(F)(F)c1nc(-c2ccc(Cn3cc(Br)cn3)cc2)no1 [compound 163]
Test A disease control rating ([1]; test suspension 250 ppm): 100%
Test B disease control rating ([2]; test suspension 250 ppm): 0%
Test C disease control rating ([3]; test suspension 250 ppm): 100%

NC(=O)C1=NOC(Cc2ccc(-c3noc(C(F)(F)F)n3)cc2)C1 (stereo not drawn) [compound 164]
Test A disease control rating ([1]; test suspension 250 ppm): 100%
Test B disease control rating ([2]; test suspension 250 ppm): 88%
Test C disease control rating ([3]; test suspension 250 ppm): 100%

CNC(=O)C1=NOC(Cc2ccc(-c3noc(C(F)(F)F)n3)cc2)C1 (stereo not drawn) [compound 165]
Test A disease control rating ([1]; test suspension 260 ppm): 100%
Test B disease control rating ([2]; test suspension 260 ppm): 95%
Test C disease control rating ([3]; test suspension 260 ppm): 100%

C=CCOC(=O)c1cnn(Cc2ccc(-c3noc(C(F)(F)F)n3)cc2)c1 [compound 166]
Test A disease control rating [1, 4]: 100%
Test B disease control rating [2, 5]: 90** %
Test C disease control rating ([3]; test suspension 10 ppm): 100%

C=C(C)COC(=O)c1cnn(Cc2ccc(-c3noc(C(F)(F)F)n3)cc2)c1 [compound 170]
Test A disease control rating [1, 4]: 100%
Test B disease control rating [2, 5]: 97** %
Test C disease control rating ([3]; test suspension 10 ppm): 100%

CC(C)COC(=O)c1cnn(Cc2ccc(-c3noc(C(F)(F)F)n3)cc2)c1 [compound 171]
Test A disease control rating [1, 4]: 100%
Test B disease control rating [2, 5]: 37** %
Test C disease control rating ([3]; test suspension 10 ppm): 100%

CCNC(=O)C1=NOC(Cc2ccc(-c3noc(C(F)(F)F)n3)cc2)C1 (stereo not drawn) [compound 175]
Test A disease control rating ([1]; test suspension 255 ppm): 100%
Test B disease control rating ([2]; test suspension 255 ppm): 95%
Test C disease control rating ([3]; test suspension 255 ppm): 100%

C#CCNC(=O)C1=NOC(Cc2ccc(-c3noc(C(F)(F)F)n3)cc2)C1 (stereo not drawn) [compound 176]
Test A disease control rating ([1]; test suspension 250 ppm): 100%
Test B disease control rating ([2]; test suspension 250 ppm): 92%
Test C disease control rating ([3]; test suspension 250 ppm): 100%

O=C(C1=NOC(Cc2ccc(-c3noc(C(F)(F)F)n3)cc2)C1)N1CCC1 (stereo not drawn) [compound 177]
Test A disease control rating ([1]; test suspension 250 ppm): 100%
Test B disease control rating ([2]; test suspension 250 ppm): 97%
Test C disease control rating ([3]; test suspension 250 ppm): 100%

FC(F)(F)c1nc(-c2ccc(CNC3CC3)s2)no1 [compound 191]
Test A disease control rating ([1]; test suspension 50 ppm): 100%
Test B disease control rating ([2]; test suspension 250 ppm): 96* %
Test C disease control rating ([3]; test suspension 50 ppm): 100%

CCOC(=O)c1cnn(Cc2csc(-c3noc(C(F)(F)F)n3)c2)c1 [compound 193]
Test A disease control rating ([1]; test suspension 50 ppm): 100%
Test B disease control rating ([2]; test suspension 250 ppm): 28* %
Test C disease control rating ([3]; test suspension 50 ppm): 100%

CCOC(=O)c1csc(Cc2ccc(-c3noc(C(F)(F)F)n3)s2)n1 [compound 201]
Test A disease control rating ([1]; test suspension 250 ppm): 100%
Test B disease control rating ([2]; test suspension 250 ppm): 28%
Test C disease control rating ([3]; test suspension 250 ppm): 100%

O=C(NCC1CC1)c1csc(Cc2ccc(-c3noc(C(F)(F)F)n3)s2)n1 [compound 202]
Test A disease control rating ([1]; test suspension 250 ppm): 100%
Test B disease control rating ([2]; test suspension 250 ppm): 83%
Test C disease control rating ([3]; test suspension 250 ppm): 100%

CCOC(=O)c1cnn(Cc2ccc(-c3noc(C(F)(F)F)n3)o2)c1 [compound 210]
Test A disease control rating ([1]; test suspension 50 ppm): 100%
Test B disease control rating ([2]; test suspension 250 ppm): 63* %
Test C disease control rating ([3]; test suspension 50 ppm): 99%

CCCOC(=O)c1cnn(Cc2ccc(-c3noc(C(F)(F)F)n3)o2)c1 [compound 211]
Test A disease control rating ([1]; test suspension 50 ppm): 100%
Test B disease control rating ([2]; test suspension 250 ppm): 70* %
Test C disease control rating ([3]; test suspension 50 ppm): 100%

O=C(NCC(F)(F)F)c1cnn(COc2ccc(-c3noc(C(F)(F)F)n3)cc2)c1 [compound 212]
Test A disease control rating [1, 4]: 100%
Test B disease control rating ([2]; test suspension 250 ppm): 79* %
Test C disease control rating ([3]; test suspension 10 ppm): 100%

COCCNC(=O)c1cnn(COc2ccc(-c3noc(C(F)(F)F)n3)cc2)c1 [compound 213]
Test A disease control rating [1, 4]: 100%
Test B disease control rating ([2]; test suspension 250 ppm): 82* %
Test C disease control rating ([3]; test suspension 10 ppm): 74%
